Experimental data from US5552156A, “Liposomal and micellular stabilization of camptothecin drugs” (Ohio State University, priority 1995, dated 1996).
“Also recorded” adds a separate entry of the source.

Tests used:
Format in all cases: physicochemical
[1] = Overall association constant by fluorescence anisotropy titration, DMPC liposomes; details: for overall association constant K, DMPC: DMPC (electroneutral, fluid phase), PBS, 37° C.; for bound drug level, DMPC: DMPC liposomes, 0.29M lipid, estimated; for binding affinity for liposomes (ranking): each type of liposome
Protocol: While the spectral changes provide qualitative evidence that the camptothecin drugs bind the liposome membranes, fluorescence anisotropy titration, offers the most sensitive means for quantitatively assessing the extent of the binding. The fluorescence anisotropy titration was performed according to the method of Burke and Tritton, Biochemistry 24: 1768-1776 (1985).
The concentrations of free camptothecin drugs and camptothecin drugs associated with liposomes were determined at various lipid concentrations. All experiments were conducted in glass tubes pretreated with a silating agent, Surfacil, from Pearce Chemical, Rockford, Ill. The titration was conducted at camptothecin drug concentration of 1×10^-6 M in PBS at 37° C. Anisotropy values at each lipid concentration were determined within less than 30 seconds following the addition of the camptothecin drugs to the liposome suspension. The (a) values were determined for fixed drug concentration, typically 2 μM, while the lipid concentration was varied from 0 to 0.29M. By varying the lipid concentration rather than varying the drug concentration, the problem of self-association phenomenon which occurs for camptothecin drugs concentrations in excess of 10 μM is avoided. Also, the well-known phenomenon known as inner filter effect which occurs using fluorescent material at high optical densities is a is avoided.
Adsorption isotherms like those shown in FIGS. 4A and 4B were used to determine overall association constants for the camptothecin drugs. Overall association constants are defined as: […]
where [AB ] represents the concentration of the camptothecin drug bound to the vesicle membrane, [AF ] represents the concentration of free drug, and [L] represents the total lipid concentration in the liposome suspension. This equation is valid when the concentration of free lipid is approximately equal to the concentration of total lipid, that is, the concentration of free lipid is in great excess over the concentration of bound drug. Provided this concentration is satisfied, K may be determined from the inverse of the slope of a double reciprocal plot according to (Burke and Tritton, Biochemistry 24:1776, 1985). In such a plot, 1/bound fraction of the total camptothecin drug is plotted vs. 1/[lipid], with a y-intercept value of 1.
FIG. 6A is the double-reciprocal plot for the associations of CMC, camptothecin, camptothecin carboylate sodium salt and topotecan with DMPC at 37° C.
The stabilization of camptothecin drugs was determined using different lipids. Three types of lipids (and thus 3 types of membranes) were examined: fluid-phase and electroneutral L-α-dimyristoylphosphatidylcholine (DMPC); fluid-phase and negatively-charged L-α-dimyristoylphosphatidylglycerol (DMPG), and solid-phase and electroneutral L-α-distearoylphosphatidylcholine (DSPC). While DMPC and DMPG have identical chain length, the charge on their head groups differ. DMPC and DSPC have identical head groups, but DMPC has acyl chains having 14 carbons per chain, which are four carbons shorter than the DSPC, which has 18 carbons per chain. This difference of 4-carbon chain length results in DMPC being fluid-phase at 37° C. while DSPC is solid-phase. The 7 camptothecin drugs listed in Table III were combined with liposomes containing the above lipids.
FIGS. 4A and 4B show the extent of camptothecin drug binding to liposomes as a function of lipid concentration for DMPC and DMPG liposomes. DMPC liposomes were made as in Example 1, at lipid concentrations from 0 to 0.29M, using CMC, 10-hydroxycamptothecin, 10,11-methylenedioxy-camptothecin, topotecan, camptothecin, and camptothecin carboxylate sodium salt, as shown in FIG. 4B. DMPG liposomes were made as in Example 2, at lipid concentrations from 0 to 0.29M, using 9-chloro-10,11-methylenedioxycamptothecin CMC, 10,11-methylenedioxycamptothecin, camptothecin, and topotecan, 9-aminocamptothecin, as shown in FIG. 4A. […]

[2] = Overall association constant by fluorescence anisotropy titration, DSPC liposomes; details: for overall association constant K, DSPC: DSPC (electroneutral, solid phase), PBS, 37° C.
Protocol: The concentrations of free camptothecin drugs and camptothecin drugs associated with liposomes were determined at various lipid concentrations. […] The titration was conducted at camptothecin drug concentration of 1×10^-6 M in PBS at 37° C. Anisotropy values at each lipid concentration were determined within less than 30 seconds following the addition of the camptothecin drugs to the liposome suspension. […] By varying the lipid concentration rather than varying the drug concentration, the problem of self-association phenomenon which occurs for camptothecin drugs concentrations in excess of 10 μM is avoided. Also, the well-known phenomenon known as inner filter effect which occurs using fluorescent material at high optical densities is a is avoided.

[3] = HPLC assay of lactone ring hydrolysis, free in PBS or associated with liposomes or micelles; details: for duration of stability when bound to liposomes / lactone hydrolysis when associated with liposomes: DMPC and DMPG liposomes; for duration of stability when bound to liposomes: 0.29M lipid; for C/L drug DMPC Lip. / t1/2 drug DMPC Lip.: DMPC liposomes; for C/L drug DMPG Lip. / t1/2 drug DMPG Lip.: DMPG liposomes; for effect of liposome lysis by sonication: 5 minutes sonication; for biologically active (lactone) form present after 48 hours: associated with DMPC or DMPG liposomes; for carboxylate/lactone ratio (C/L) free drug: final equilibrium; for t1/2 free drug: lactone hydrolysis
Protocol: A high performance liquid chromatography assay was used to determine the rate of hydrolysis of camptothecin and topotecan free in aqueous solution and to compare such rates with the rate of hydrolysis for the same drugs when bound to the DMPG and DMPC liposome membranes. The assay was conducted under near physiological conditions; the pH was 7.4, the temperature was 37° C. and the ionic strength was physiological. A Spectroflow model 980 fluorescence detector coupled to an HP 3392A integrator which acquired and processed the chromatograms, was used. For camptothecin, an Ultrasphere ODS C-18 250 mm long column was used. The mobile phase consisted of 32% acetonitrile, 67% 0.1M acetate buffer, pH 5.5, and 1% 01.M sodium dodecylsulfate at a flow rate of 1 mL/min. The detector was set to 370 nm excitation wavelength and a 418 nm long pass emission filter. A 1 μM solution of camptothecin in PBS was prepared and incubated at 37° C. Immediately after mixing the drug stock solution with PBS and at intervals of 5 min thereafter, 50 μL aliquots were taken out and mixed with 150 μL methanolic internal standard, 9-toluoylamidocamptothecin and either analyzed immediately or kept cold under dry ice. 150 μL of this mixture was diluted with 125 μL water and 200 μL was injected. The ratio of the peak areas corresponding to the intact lactone form of the camptothecin drug and the internal standard at a particular time was normalized to that at the time of mixing and was considered as the concentration of the intact lactone form.
For topotecan the excitation wavelength was 362 nm and the emission was observed through a 470 long wave pass filter. The stationary phase was Waters Nova-Pak C-18 150mm long column. The mobile phase consisted of 500 mL 0.1M KH2 PO4, 550 mL acetonitrile, 4.2 mL triethylamine (distilled over molecular sieves), 4.44 g sodium dioctylsulfosuccinate (DOSS), and 970 ml water. The pH was adjusted to 6.0 with H3 PO4. Internal standard solution contained 50×10^-9 g acridine from Eastman and 20×10^-3 M DOSS in methanol and was always kept cold at ≤-20° C. Next 150 μL or cold internal standard solution was mixed with 50 μL aliquot containing topotecan, centrifuged for 1 minute and the supernatant was either analyzed immediately or stored at -20° C. for analysis at a later time, within 2 hours. Samples were monitored at time points from 0 minutes, that is, immediately following dissolution, up to 72 hours.
The kinetics of lactone ring hydrolysis for free camptothecin, CMC and topotecan are shown in of FIGS. 7a, 7b and 7c. Analysis of the decay profile for camptothecin, CMC and topotecan free in PBS was accomplished using a nonlinear least squares program.

**Q.** Which results are given for `CCC1(O)C(=O)OCc2c1cc1n(c2=O)Cc2cc3c(Cl)c4c(cc3nc2-1)OCO4` (stereo not shown) [9-chloro-10,11-methylenedioxycamptothecin]?
**A.** overall association constant K, DMPC [1]: 400 M⁻¹; bound drug level, DMPC [1]: 99%; binding affinity for liposomes (ranking) [1]: highest binding affinity for each type of liposome; overall association constant K, DSPC [2]: 500 M⁻¹; duration of stability when bound to liposomes [3]: at least 48 hours; C/L drug DMPC Lip. ([3]; pH 7.4, 37° C.): ~ 0; t1/2 drug DMPC Lip. ([3]; pH 7.4, 37° C.): > 72 h; C/L drug DMPG Lip. ([3]; pH 7.4, 37° C.): ~ 0; t1/2 drug DMPG Lip. ([3]; pH 7.4, 37° C.): > 72 h; effect of liposome lysis by sonication ([3]; DSPC MLVs): releases 9-chloro-10,11-methylenedioxycamptothecin which is then hydrolysed; effect of liposome lysis by sonication ([3]; DSPC MLVs, listed as CMC): at least partially released and hydrolysed; lactone ring not hydrolysed in pH 5 DSPC liposomes ([3]; DSPC MLVs, internal pH 5): More than 80%; biologically active (lactone) form present after 48 hours [3]: more than 97%; carboxylate/lactone ratio (C/L) free drug ([3]; free in PBS, pH 7.4, 37° C.): 6.4; half-life (t1/2) of free drug in PBS ([3]; free in PBS, pH 7.4, 37° C.): approximately 21 min; t1/2 free drug ([3]; free in PBS, pH 7.4, 37° C.): 21.3 min

**Q.** With `CCC1(O)C(=O)OCc2c1cc1n(c2=O)Cc2cc3cc4c(cc3nc2-1)OCO4` (stereo not shown) [10,11-methylenedioxycamptothecin] as the molecule, how does the “binding affinity for liposomes (ranking)” value [1] read?
**A.** The value was “intermediate binding affinities”.

**Q.** What about the “lactone hydrolysis when associated with liposomes” value [3] of the same molecule?
**A.** The value was “little hydrolysis even at 48 hours”.

**Q.** What about the “C/L drug DMPC Lip.” value ([3]; pH 7.4, 37° C.) of the same molecule?
**A.** The value was ~ 0.

**Q.** What about the “t1/2 drug DMPC Lip.” value ([3]; pH 7.4, 37° C.) of the same molecule?
**A.** Its value is > 72 h.

**Q.** What about the “C/L drug DMPG Lip.” value ([3]; pH 7.4, 37° C.) of the same molecule?
**A.** The value was ~ 0.

**Q.** And the “t1/2 drug DMPG Lip.” value ([3]; pH 7.4, 37° C.)?
**A.** The value was > 72 h.

**Q.** And the “biologically active (lactone) form present after 48 hours” value [3]?
**A.** The value was “more than 97%”.

**Q.** What about the “carboxylate/lactone ratio (C/L) free drug” value ([3]; free in PBS, pH 7.4, 37° C.) of the same molecule?
**A.** Its value is 3.3.

**Q.** And the “half-life (t1/2) of free drug in PBS” value ([3]; free in PBS, pH 7.4, 37° C.)?
**A.** Its value is 28.7 min.

**Q.** What about the t1/2 free drug ([3]; free in PBS, pH 7.4, 37° C.) of the same molecule?
**A.** The t1/2 free drug was 28.7 min.

**Q.** And the degraded at 1 h ([3]; pH 7.4, free in PBS, less than 1 hour, read-out: drug hydrolyzed in less than 1 hour)?
**A.** The degraded at 1 h was > 70%.

**Q.** And the “drug stabilized at 5 hours” value ([3]; sorbitan mono-oleate micelles, 5 hours)?
**A.** The value was 50%.

**Q.** With `CCC1(O)C(=O)OCc2c1cc1n(c2=O)Cc2cc3cc(O)ccc3nc2-1` (stereo not shown) [10-hydroxycamptothecin] as the molecule, how does the “overall association constant K, DMPC” value [1] read?
**A.** The value was 75 M⁻¹.

**Q.** And the “carboxylate/lactone ratio (C/L) free drug” value ([3]; free in PBS, pH 7.4, 37° C.)?
**A.** Its value is 5.4.

**Q.** What about the t1/2 free drug ([3]; free in PBS, pH 7.4, 37° C.) of the same molecule?
**A.** Its t1/2 free drug is 23.9 min.

**Q.** Which results are given for `CC[C@@]1(O)C(=O)OCc2c1cc1n(c2=O)Cc2cc3ccccc3nc2-1` [camptothecin]?
**A.** bound drug level, DMPC [1]: 97%; binding affinity for liposomes (ranking) [1]: intermediate binding affinities; overall association constant K, DSPC [2]: 300 M⁻¹; binding preference for DSPC liposomes over DMPC liposomes ([2]; solid-phase DSPC over fluid-phase DMPC): 3 -fold; lactone ring hydrolysis at raised drug concentration ([3]; 2 mM, lipid to drug ratio 150, DMPC): no evidence of lactone ring hydrolysis was observed; duration of stability when bound to liposomes [3]: at least 48 hours; C/L drug DMPC Lip. ([3]; pH 7.4, 37° C.): ~ 0; t1/2 drug DMPC Lip. ([3]; pH 7.4, 37° C.): > 72 h; C/L drug DMPG Lip. ([3]; pH 7.4, 37° C.): ~ 0; t1/2 drug DMPG Lip. ([3]; pH 7.4, 37° C.): > 72 h; C/L drug DSPC Lip. ([3]; DSPC liposomes, pH 7.4, 37° C.): ~ 3.4; biologically active (lactone) form present after 48 hours [3]: more than 97%; carboxylate/lactone ratio (C/L) free drug ([3]; free in PBS, pH 7.4, 37° C.): 6.8; half-life (t1/2) of free drug in PBS ([3]; free in PBS, pH 7.4, 37° C.): 16.6 min; t1/2 free drug ([3]; free in PBS, pH 7.4, 37° C.): 16.6 min

**Q.** Which results are given for `CC[C@@]1(O)C(=O)OCc2c1cc1n(c2=O)Cc2cc3c(CN(C)C)c(O)ccc3nc2-1` [topotecan]?
**A.** reduced propensity to bind electroneutral liposome membranes relative to CMC ([1]; DMPC): 40 -fold; overall association constant K, DMPC [1]: 10 M⁻¹; bound drug level, DMPC [1]: 74%; binding affinity for liposomes (ranking) [1]: lowest binding affinity for liposomes; binding preference for DSPC liposomes over DMPC liposomes ([2]; dspc over dmpc liposomes): 5 -fold; lactone hydrolysis when associated with liposomes [3]: some hydrolysis at 1 hour; also recorded: stabilized to a greater degree in DMPG liposomes as compared to DMPC liposomes; C/L drug DMPC Lip. ([3]; pH 7.4, 37° C.): 3.4; t1/2 drug DMPC Lip. ([3]; pH 7.4, 37° C.): 1.25 h; C/L drug DMPG Lip. ([3]; pH 7.4, 37° C.): 0.42; t1/2 drug DMPG Lip. ([3]; pH 7.4, 37° C.): 1.6 h; carboxylate/lactone ratio (C/L) free drug ([3]; free in PBS, pH 7.4, 37° C.): 7.5; t1/2 free drug ([3]; free in PBS, pH 7.4, 37° C.): 21.1 min
